Test results: US9872853B2, “2,3-dihydro-1H-indole compounds” (Eli Lilly and Company, priority 2016, dated 2018)
Where “and” joins values, the source holds several entries; their conditions need not be identical. Identical values can stand only once. Like-named read-outs stand apart in the source and are kept apart here.

How the values were obtained:
His6-IDO1 = biological target: T1, His6-IDO1 (Homo sapiens, UniProt P14902); assay: Binding assay for IDO1: competition with a tritiated spy molecule; conditions: displacement of 50 nM tritiated spy molecule, four hours, room temperature
T1 construct: purchased Proteros PR-0278
T1 sequence (P14902 whole entry): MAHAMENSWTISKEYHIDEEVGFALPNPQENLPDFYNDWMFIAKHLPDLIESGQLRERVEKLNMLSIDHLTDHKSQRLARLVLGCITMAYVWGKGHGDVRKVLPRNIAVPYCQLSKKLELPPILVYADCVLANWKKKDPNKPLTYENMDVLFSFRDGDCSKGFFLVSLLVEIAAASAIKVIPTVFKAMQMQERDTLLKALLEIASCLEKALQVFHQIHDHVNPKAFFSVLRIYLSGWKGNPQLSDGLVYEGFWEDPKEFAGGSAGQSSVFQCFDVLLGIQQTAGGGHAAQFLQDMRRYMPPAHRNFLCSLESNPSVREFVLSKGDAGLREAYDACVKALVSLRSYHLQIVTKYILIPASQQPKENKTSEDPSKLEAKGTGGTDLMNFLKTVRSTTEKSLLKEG
Procedure: Specifically, this assay assesses the ability of test compounds to compete with a tritiated spy molecule 1-(2,4-difluorophenyl)-3-[[1-(3,4,5-tritritiobenzoyl)indolin-5-yl]methyl]urea and allows for the calculation of the binding affinity, IC50.
Competitive Binding of 1-(2,4-Difluorophenyl)-3-[[1-(3,4,5-tritritiobenzoyl)indolin-5-yl]methyl]urea to IDO1
Load 300 nM His6-IDO1 (Proteros, SwissProtID P14902, Cat# PR-0278, batch 19/59, 98 mg/mL in 25 mM MES pH 6.5, 150 mM KCl, purity >95%) diluted in DPBS to each well of nickel coated plate (Sigma, Cat#55563) and incubate overnight at 4° C. Remove unbound proteins by washing plate with 300 μL DPBS four times in BIOTEK® Microplate Washer. Add 100 μL of blocking buffer (0.05% TWEEN® 20/DPBS) per well and incubate for one hour at room temperature to reduce nonspecific binding. While blocking the plate, prepare 50 nM 1-(2,4-difluorophenyl)-3-[[1-(3,4,5-tritritiobenzoyl)indolin-5-yl]methyl]urea (Biocair, Cat# TRQ41455) by diluting in DPBS, and serially dilute unlabeled stock solution 2.5-fold in DMSO to generate an eleven point dilution curve. […] Quantitate total bound and nonspecific binding (NSB) of the 1-(2,4-difluorophenyl)-3-[[1-(3,4,5-tritritiobenzoyl)indolin-5-yl]methyl]urea ligand using a Trilux Microbeta Counter. […]

IDO1 activity in SKOV3 = biological target: T2, IDO1 activity in SKOV3 (Homo sapiens, UniProt P14902); assay: Kynurenine production assay (SKOV3); format: cell-based; conditions: SKOV3 cells, 18 hours, MS measurement in media
T2 construct: an ovarian cancer cell line that intrinsically expresses IDO1; host or cells: SKOV3 (in vitro); SKOV3X (Indiana University Research and Technology Center) as intraperitoneal xenograft tumours in athymic nude mice
T2 sequence (P14902 whole entry): as above
Procedure: The purpose of this assay is to evaluate the inhibition of the production of kynurenine, N-formyl-kynurenine and the depletion of tryptophan in IDO1 expressing cancer cells and assess whether compounds are overtly toxic to these cells. Exemplary compounds are tested for the inhibition of IDO1 activity in SKOV3 (ATCC, Cat# HTB-77), an ovarian cancer cell line that intrinsically expresses IDO1. Due to IDO1 expression, SKOV3 cells degrade tryptophan with the concomitant production of kynurenine and compounds are tested for their ability to inhibit the production of kynurenine, N-formyl-kynurenine and the depletion of tryptophan. Optionally, overt toxicity of compounds can be assessed by monitoring cell viability.
Plate SKOV3 cells, an IDO1-expressing ovarian cancer cell line, at 20,000 cells per well in 100 μL of McCoys 5A media (Gibco, Cat#16600-082) supplemented with non-essential amino acids (Gibco, Cat#11140-050), 1 mM sodium pyruvate (Gibco, Cat#11360-070), and 10% fetal bovine serum, complete media, in a 96 well tissue culture plate (BD Biosciences). Then, incubate cells for 16 hours in a 37° C. incubator with 5% CO2. […] Optionally, return original plate(s) to the incubator for an additional 24 hours and measure the viability of cells by adding an equal volume of CELLTITER-GLO® (Promega) and measure luminescence in an PERKIN ELMER® EnVision plate reader. […]

Colon26 tumors = assay: Mouse syngeneic Colon26 model for colon cancer; format: in vivo, BALB/c mice
Procedure: Grow the mouse BALB/c-derived Colon26 colon cancer cell line in RPMI 1640 medium supplemented with 10 mM HEPES, […] sodium pyruvate, and 10% fetal bovine serum. Harvest sub-confluent cells with trypsin and rinse twice with complete growth medium lacking serum. Initiate subcutaneous tumors by injecting 1×10^6 cells resuspended in HBSS in the rear flank of immune-competent BALB/c mice (Envigo, Indianapolis, Ind.). Six days after tumor implantation, randomize animals based on body weight and place into their respective treatment groups using the number of animals per group as indicated.
(§1) Capture tumor size and body weight using Study Director. Estimate tumor volume (V) by using the formula: V=0.536×L×W^2 where L=larger measured diameter and W=smaller of the perpendicular diameter. Transform the tumor volume data to a log scale to equalize variance across time and treatment groups. Analyze the log volume data with a two-way repeated measures analysis of variance by time and treatment using the MIXED procedures in SAS software (Version 9.2). The correlation model for the repeated measures is Spatial Power. Compare treated groups to the control group at each time point. Use the MIXED procedure also separately for each treatment group to calculate adjusted means and standard errors at each time point. Both analyses account for the autocorrelation within each animal and for the loss of data that occurs when animals with large tumors are removed from the study early. Calculate relative changes in tumor volume (% T/C) using the tumor volume measurements taken nearest to the last day of dosing with Example 1A, using the formula % T/C=100×ΔT/ΔC, where T=mean tumor volume of the compound treated group, ΔT=mean tumor volume of the compound treated group minus the mean tumor volume on the baseline day, C=mean tumor volume of the control (vehicle) group, and ΔC=mean tumor volume of the control group minus the mean tumor volume on the baseline day. If ΔT<0, then a tumor regression value is calculated instead of % T/C whereby % Regression=100×ΔT/Tinitial such that Tinitial=mean tumor volume on the baseline day.
(§2) Assess antitumor efficacy of Example 1A and LY3300054 alone, or in combination by measuring tumor volume by three dimensional caliper measurements twice a week during the course of the study. Measure body weight twice weekly during the course of the study, as a general indicator of tolerability.
(§3) Formulations for Example 1A and LY3300054: Formulate Example 1A on a weekly basis in 1% HEC/0.25% Tween 80/0.05% Antifoam and store at 4° C. Solublize LY3300054 in phosphate buffered saline and store at 4° C.
(§4) Control group(s): For single agent efficacy studies, administer vehicle for Example 1A alone. For combination studies, administer both vehicles used for Example 1A and LY3300054 according to the same schedule for each compound, respectively. For monotherapy groups in combination efficacy studies, treat the animals with the desired compound and the vehicle for the compound not being dosed following the schedule for the non-dosed compound.
Treat female BALB/c mice (n=10) bearing Colon26 tumors with Example 1A twice daily for 21 days by oral gavage at doses of 10, 50, and 100 mg/kg. Start administration of Example 1A six days after tumor implantation, and monitor tumor growth and body weight twice a week for the duration of the treatment period.

L55 tumors = assay: L55 humanized tumor model with hPBMC challenge; format: in vivo; conditions: for tolerability (body weight): with or without hPBMCs
Source text: Grow the human NSCLC cell line, L55, in RPMI 1640 medium supplemented with 10% fetal bovine serum. Harvest sub-confluent cells with trypsin and rinse twice with growth medium lacking serum. Initiate the growth of subcutaneous tumors by injecting 5×10^6 in a 1:1 mixture of HBSS and MATRIGEL® (BD Biosciences, Franklin Lakes, N.J.) in the rear flank of NOD.Cg-Prkdc^scidI12rg^tm1Wjl/SzJ mice more commonly known as NOD scid gamma chain knockout mice (NSG) mice (The Jackson Laboratory, Bar Harbour, Me.), which lack T cells, B cells, NK cells, and are deficient in cytokine signaling. When the mean tumor volume reaches approximately 200-300 mm^3, randomize the animals by tumor size and body weight and place into their respective treatment groups as indicated. After randomization, challenge tumor-bearing mice with PBS alone (no PBMCs) or with PBS containing 1×10^7 human PBMCs into the tail vein of recipients.
as §1, §2, §3
as §4, with “compound. […]” for “compound.”

Compound	IC50 (His6-IDO1)	IC50 (IDO1 activity in SKOV3; read-out: IC50 for inhibiting N-formyl-kynurenine)	IC50 (IDO1 activity in SKOV3; read-out: IC50 for inhibiting kynurenine)	reduction in body weight compared to baseline (Colon26 tumors; 10 mg/kg twice daily, day 20)	reduction in body weight compared to baseline (Colon26 tumors; 50 mg/kg twice daily, day 20)	reduction in body weight compared to baseline (Colon26 tumors; 100 mg/kg twice daily, day 20)	tolerability (body weight changes) (Colon26 tumors; 10, 50 and 100 mg/kg twice daily for 21 days, versus vehicle-treated mice)	tumor growth inhibition (statistics) (Colon26 tumors; only 50 and 100 mg/kg doses, day 20)	tumor growth inhibition (L55 tumors; 75 mg/kg twice daily oral, absence of hPBMCs, versus vehicle without PBMCs)	tolerability (body weight) (L55 tumors; 75 mg/kg twice daily oral)	effect on tumor growth (L55 tumors; 10 mg/kg intraperitoneal once a week for 4 weeks, with hPBMCs, versus vehicle)	change in tumor volume (% T/C) (L55 tumors; 10 mg/kg intraperitoneal once a week, with hPBMCs, day 37, versus vehicle lacking PBMCs)	tolerability (body weight) (L55 tumors; 10 mg/kg intraperitoneal once a week)
C[C@@H](NC(=O)c1ccc(F)cc1)c1ccc2c(c1)CCN2C(=O)C1CCOCC1 (single isomer, unassigned) [Example 1A]	< 1500 nM and 33 nM	7 nM	7 nM	2.5%	8%	2.5%	no significant tolerability issues	statistically (p<0.001) relevant growth inhibition	did not result in significant tumor growth inhibition	No significant tolerability issues			
C[C@H](NC(=O)c1ccc(F)cc1)c1ccc2c(c1)CCN2C(=O)C1CCOCC1 (single isomer, unassigned; isomer 2) [Example 1B]	< 1500 nM												
LY3300054: an antibody that binds human PD-L1 (SEQ ID NO: 1), comprising a light chain (LC) and a heavy chain (HC)											statistically significant tumor growth inhibition	75.7%	No significant tolerability issues
